# Assay results: article PMC11649115, “In vitro safety evaluation of dopamine D3R antagonist, R-VK4-116, as a potential medication for the treatment of opioid use disorder” (PLOS ONE, 2024)
# Values joined by “and” are separate entries in the source; they are usually repeats but may differ in a detail not shown here. Equal entries are not always repeated. Where two headings read alike, the source gives them in different places.
# Tests used:
# HepG2 cells [1] = test: Cytotoxicity MTT assay in HepG2; assay type: cell-based; conditions: 72-hr, 10 to 100 μM
# [2] = Metabolic stability in hepatocyte; conditions: human, hepatocytes in suspension
# Procedure: (§1) CYP3A4 substrate Midazolam (10 μM) was prepared and incubated in the same manner. […] In addition, in vitro half-life (t1/2, min) and intrinsic clearance (CLint, μl/min/10^6 cells) were calculated [10, 11].
# human hepatocytes = test: Metabolic stability in hepatocyte; conditions: for % remaining Vs T = 0 min: human hepatocytes
# Procedure: as §1
# CYP3A4 mRNA = test: CYP induction, mRNA, primary cultured human hepatocytes; assay type: in vitro ADME; conditions: for fold induction at 48 h, 0.01 µM / fold induction at 48 h, 0.1 µM / fold induction at 48 h, 1 µM / fold induction at 48 h, 3 µM / fold induction at 48 h, 5 µM / fold induction at 48 h, 10 µM: human, primary cultured human hepatocytes, read-out: CYP3A4 mRNA Fold Induction (fold of vehicle control)
# HepG2 cells [3] = test: Phospholipidosis and steatosis, high content screening; assay type: cell-based; design: key to Cell count, Trend (↑↓) / Nuclear size, Trend (↑↓) / DNA structure, Trend (↑↓) / Phospholipidosis, Trend (↑↓) / Steatosis, Trend (↑↓): ↑: increasing trend of response; ↓: decreasing trend of response
# [4] = as above; assay type: cell-based; design: key to Cell count, Trend (↑↓) / Nuclear size, Trend (↑↓) / DNA structure, Trend (↑↓) / Phospholipidosis, Trend (↑↓) / Steatosis, Trend (↑↓): ↑: increasing trend of response; ↓: decreasing trend of response; conditions: human, HepG2 cells
# CYP3A4 = test: CYP induction, in situ catalytic activity, human hepatocytes; assay type: in vitro ADME
# CYP2B6 = target: T1, CYP2B6 (Homo sapiens, UniProt P20813); test: CYP inhibition in human liver microsomes; conditions: human liver microsomes
# T1 sequence (P20813 1-491): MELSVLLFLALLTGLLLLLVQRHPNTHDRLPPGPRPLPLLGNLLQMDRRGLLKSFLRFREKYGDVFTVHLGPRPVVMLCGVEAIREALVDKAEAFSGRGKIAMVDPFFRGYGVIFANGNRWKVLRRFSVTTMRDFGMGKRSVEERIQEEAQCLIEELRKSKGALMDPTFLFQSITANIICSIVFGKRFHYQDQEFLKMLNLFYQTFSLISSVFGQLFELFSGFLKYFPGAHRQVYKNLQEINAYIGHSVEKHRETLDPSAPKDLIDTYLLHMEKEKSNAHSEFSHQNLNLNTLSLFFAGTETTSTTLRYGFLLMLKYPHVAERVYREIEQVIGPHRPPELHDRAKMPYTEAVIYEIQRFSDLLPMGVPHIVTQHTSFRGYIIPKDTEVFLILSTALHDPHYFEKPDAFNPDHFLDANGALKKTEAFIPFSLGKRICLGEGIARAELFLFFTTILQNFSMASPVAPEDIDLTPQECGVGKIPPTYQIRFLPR
# [5] = Sprague Dawley (rat), Beagle (dog), rat, dog
structure (smiles),measurement,setting,value
"CCc1cc(Cl)c(OC)c(N2CCN(CC(O)CCNC(=O)c3cc4ccccc4[nH]3)CC2)c1 (centres unmarked) [R-VK4-116, N-(4-(4-(3-chloro-5-ethyl-2-methoxyphenyl)piperazin-1-yl)-3-hydroxybutyl)-1H-indole-2-carboxamide]",decrease in HepG2 cell viability compared with the solvent control (MTT),HepG2 cells [1],40–50%
same,half-life at 0.5 μM,[2]; [5],1.52 to 1.95 h
same,half-life at 10 μM,[2]; [5],2.82 to 5.78 h
same,hepatocyte CLint at 0.5 μM,[2]; [5],12 to 16 µL/min/1e6 cells
same,hepatocyte CLint at 10 μM,[2]; [5],4 to 8 µL/min/1e6 cells
same,half-life at 0.5 μM,[2],1.95 h
same,half-life at 10 μM,[2],5.63 h
same,hepatocyte CLint at 0.5 μM,[2],11.8 µL/min/1e6 cells
same,hepatocyte CLint at 10 μM,[2],4.1 µL/min/1e6 cells
same,% remaining Vs T = 0 min,"human hepatocytes; 0.5 μM, 0 min",100.0%
same,% remaining Vs T = 0 min,"human hepatocytes; 0.5 μM, 30 min",89.1%
same,% remaining Vs T = 0 min,"human hepatocytes; 0.5 μM, 60 min",78.4%
same,% remaining Vs T = 0 min,"human hepatocytes; 0.5 μM, 90 min",65.4%
same,% remaining Vs T = 0 min,"human hepatocytes; 0.5 μM, 120 min",48.1%
same,% remaining Vs T = 0 min,"human hepatocytes; 10 μM, 0 min",100.0%
same,% remaining Vs T = 0 min,"human hepatocytes; 10 μM, 30 min",93.2%
same,% remaining Vs T = 0 min,"human hepatocytes; 10 μM, 60 min",85.5%
same,% remaining Vs T = 0 min,"human hepatocytes; 10 μM, 90 min",78.9%
same,% remaining Vs T = 0 min,"human hepatocytes; 10 μM, 120 min",79.7%
same,metabolic stability,"human hepatocytes; human, rat, or dog hepatocytes, 0.5 and 10 μM",metabolically stable
same,"induction in CYP3A4 mRNA, average","CYP3A4 mRNA; 5 μM, two days, average of hepatocyte lots",2.9 fold
same,"fold induction at 48 h, 0.01 µM","CYP3A4 mRNA; Lot 336, 0.01 μM",1.1 ± 0.079
same,"fold induction at 48 h, 0.1 µM","CYP3A4 mRNA; Lot 336, 0.1 μM",1.1 ± 0.18
same,"fold induction at 48 h, 1 µM","CYP3A4 mRNA; Lot 336, 1 μM",2.3 ± 0.15
same,"fold induction at 48 h, 3 µM","CYP3A4 mRNA; Lot 336, 3 μM",3.7 ± 0.56
same,"fold induction at 48 h, 5 µM","CYP3A4 mRNA; Lot 336, 5 μM",4 ± 0.78
same,"fold induction at 48 h, 10 µM","CYP3A4 mRNA; Lot 336, 10 μM",3.7 ± 0.2
same,"fold induction at 48 h, 0.01 µM","CYP3A4 mRNA; Lot 348B, 0.01 μM",1.1 ± 0.05
same,"fold induction at 48 h, 0.1 µM","CYP3A4 mRNA; Lot 348B, 0.1 μM",1.2 ± 0.081
same,"fold induction at 48 h, 1 µM","CYP3A4 mRNA; Lot 348B, 1 μM",1.3 ± 0.12
same,"fold induction at 48 h, 3 µM","CYP3A4 mRNA; Lot 348B, 3 μM",1.8 ± 0.17
same,"fold induction at 48 h, 5 µM","CYP3A4 mRNA; Lot 348B, 5 μM",2 ± 0.27
same,"fold induction at 48 h, 10 µM","CYP3A4 mRNA; Lot 348B, 10 μM",1.9 ± 0.13
same,"fold induction at 48 h, 0.01 µM","CYP3A4 mRNA; Lot 399, 0.01 μM",1.2 ± 0.2
same,"fold induction at 48 h, 0.1 µM","CYP3A4 mRNA; Lot 399, 0.1 μM",1.2 ± 0.11
same,"fold induction at 48 h, 1 µM","CYP3A4 mRNA; Lot 399, 1 μM",1.8 ± 0.12
same,"fold induction at 48 h, 3 µM","CYP3A4 mRNA; Lot 399, 3 μM",2.6 ± 0.14
same,"fold induction at 48 h, 5 µM","CYP3A4 mRNA; Lot 399, 5 μM",2.7 ± 0.4
same,"fold induction at 48 h, 10 µM","CYP3A4 mRNA; Lot 399, 10 μM",2.3 ± 0.39
same,"Phospholipidosis, Trend (↑↓)",HepG2 cells [3],↑
same,"Steatosis, Trend (↑↓)",HepG2 cells [3],↑
same,"Steatosis, MEC",HepG2 cells [3]; (NS) = not statistically significant,14.2 μM and 14.2 (NS) μM
same,AC50,"[4]; # AC50 greater than the maximum surviving concentration, (NS) = not statistically significant, read-out: Steatosis, AC50",> 100 µM
same,AC50,"[4]; read-out: Cell count, AC50",> 100 µM
same,AC50,"[4]; read-out: DNA structure, AC50",> 100 µM
same,AC50,"[4]; read-out: Nuclear size, AC50",> 100 µM
same,AC50,"[4]; read-out: Phospholipidosis, AC50",10.7 µM
same,CYP3A4 activity,CYP3A4; 0.01 to 10 μM,did not increase
same,"Fold of Vehicle Control (CYP3A4 activity, testosterone-6β-hydroxylation)","CYP3A4; hepatocyte Lot 336, 0.01 µM",0.96 fold
same,Testosterone-6β- Hydroxylation,"CYP3A4; hepatocyte Lot 336, 0.01 µM",9.1 pmol/min/106 cells
same,"Fold of Vehicle Control (CYP3A4 activity, testosterone-6β-hydroxylation)","CYP3A4; hepatocyte Lot 336, 0.1 µM",0.80 fold
same,Testosterone-6β- Hydroxylation,"CYP3A4; hepatocyte Lot 336, 0.1 µM",7.5 pmol/min/106 cells
same,"Fold of Vehicle Control (CYP3A4 activity, testosterone-6β-hydroxylation)","CYP3A4; hepatocyte Lot 336, 1 µM",0.66 fold
same,Testosterone-6β- Hydroxylation,"CYP3A4; hepatocyte Lot 336, 1 µM",6.3 pmol/min/106 cells
same,"Fold of Vehicle Control (CYP3A4 activity, testosterone-6β-hydroxylation)","CYP3A4; hepatocyte Lot 336, 3 µM",0.63 fold
same,Testosterone-6β- Hydroxylation,"CYP3A4; hepatocyte Lot 336, 3 µM",5.9 pmol/min/106 cells
same,"Fold of Vehicle Control (CYP3A4 activity, testosterone-6β-hydroxylation)","CYP3A4; hepatocyte Lot 336, 5 µM",0.64 fold
same,Testosterone-6β- Hydroxylation,"CYP3A4; hepatocyte Lot 336, 5 µM",6.1 pmol/min/106 cells
same,"Fold of Vehicle Control (CYP3A4 activity, testosterone-6β-hydroxylation)","CYP3A4; hepatocyte Lot 336, 10 µM",0.55 fold
same,"Fold of Vehicle Control (CYP3A4 activity, testosterone-6β-hydroxylation)","CYP3A4; hepatocyte Lot 348B, 0.01 µM",1.0 fold
same,"Fold of Vehicle Control (CYP3A4 activity, testosterone-6β-hydroxylation)","CYP3A4; hepatocyte Lot 348B, 0.1 µM",1.0 fold
same,"Fold of Vehicle Control (CYP3A4 activity, testosterone-6β-hydroxylation)","CYP3A4; hepatocyte Lot 348B, 1 µM",0.70 fold
same,"Fold of Vehicle Control (CYP3A4 activity, testosterone-6β-hydroxylation)","CYP3A4; hepatocyte Lot 348B, 3 µM",0.56 fold
same,"Fold of Vehicle Control (CYP3A4 activity, testosterone-6β-hydroxylation)","CYP3A4; hepatocyte Lot 348B, 5 µM",0.56 fold
same,"Fold of Vehicle Control (CYP3A4 activity, testosterone-6β-hydroxylation)","CYP3A4; hepatocyte Lot 348B, 10 µM",0.49 fold
same,"Fold of Vehicle Control (CYP3A4 activity, testosterone-6β-hydroxylation)","CYP3A4; hepatocyte Lot 399, 0.01 µM",1.0 fold
same,Testosterone-6β- Hydroxylation,"CYP3A4; hepatocyte Lot 399, 0.01 µM",58 pmol/min/106 cells
same,"Fold of Vehicle Control (CYP3A4 activity, testosterone-6β-hydroxylation)","CYP3A4; hepatocyte Lot 399, 0.1 µM",0.89 fold
same,Testosterone-6β- Hydroxylation,"CYP3A4; hepatocyte Lot 399, 0.1 µM",49 pmol/min/106 cells
same,"Fold of Vehicle Control (CYP3A4 activity, testosterone-6β-hydroxylation)","CYP3A4; hepatocyte Lot 399, 1 µM",0.45 fold
same,Testosterone-6β- Hydroxylation,"CYP3A4; hepatocyte Lot 399, 1 µM",25 pmol/min/106 cells
same,"Fold of Vehicle Control (CYP3A4 activity, testosterone-6β-hydroxylation)","CYP3A4; hepatocyte Lot 399, 3 µM",0.32 fold
same,Testosterone-6β- Hydroxylation,"CYP3A4; hepatocyte Lot 399, 3 µM",18 pmol/min/106 cells
same,"Fold of Vehicle Control (CYP3A4 activity, testosterone-6β-hydroxylation)","CYP3A4; hepatocyte Lot 399, 5 µM",0.30 fold
same,Testosterone-6β- Hydroxylation,"CYP3A4; hepatocyte Lot 399, 5 µM",16 pmol/min/106 cells
same,"Fold of Vehicle Control (CYP3A4 activity, testosterone-6β-hydroxylation)","CYP3A4; hepatocyte Lot 399, 10 µM",0.23 fold
same,Testosterone-6β- Hydroxylation,"CYP3A4; hepatocyte Lot 399, 10 µM",13 pmol/min/106 cells
same,CYP2B6 inhibition,CYP2B6; up to 100 μM,did not inhibit CYP significantly
same,"activity at 20 min, 0.1 µM","CYP2B6; human, probe bupropion",99.6 ± 7.5%
same,"activity at 20 min, 0.3 µM","CYP2B6; human, probe bupropion",90.9 ± 2.5%
same,"activity at 20 min, 1 µM","CYP2B6; human, probe bupropion",91.2 ± 1.4%
same,"activity at 20 min, 3 µM","CYP2B6; human, probe bupropion",99.8 ± 7.6%
same,"activity at 20 min, 10 µM","CYP2B6; human, probe bupropion",97.5 ± 6.6%
same,"activity at 20 min, 30 µM","CYP2B6; human, probe bupropion",89.3 ± 1.2%
same,"activity at 20 min, 60 µM","CYP2B6; human, probe bupropion",91 ± 0.7%
same,"activity at 20 min, 100 µM","CYP2B6; human, probe bupropion",97 ± 4.9%
